Measurements: US20240067632A1, “WEE1 Degrading Compounds and Uses Thereof” (Bristol-Myers Squibb Company, priority 2022, published 2024)
pEC50: −log10 of the molar value.

Legend:
[1] = system: MKN45 cells; experiment: MKN45 cell proliferation assay (Cell-Titer-Glo, 120 h); type: cell-based; settings: for pEC50: Homo sapiens, MKN-45, 120 h, Cell-Titer-Glo, read-out: MKN45 Cell Prolif. 120 hr (EC50); for MKN45 Cell Prolif. 120 hr (Ymin-Obs): minimal percent of DMSO control observed in the concentrations tested
Experimental: MKN45 cells were obtained from Celgene internal cell banks and cultured in RPMI complete media (RPMI-1640, 1× Penicillin/Streptomycin, 1× glutamine, 1× Sodium Pyruvate, Non-essential Amino Acids, 10% Fetal Bovine serum, all component from Thermo-Fisher). Compounds were dispensed into 384-well plates using an HP DE300 compound printer in triplicate with 8 compounds on each plate. For each compound, a 10-point dose response was printed at half-log dilutions starting at either 1 uM or 10 uM. The DMSO concentration was kept constant for a final assay concentration of 0.1% per well assuming 50 ul final media volume. Compound plates were sealed and frozen at −20 C until use.
For each assay batch, compound plates were thawed and allowed to reach room temperature, and cells were seeded at 400 cells per well in 50 ul complete RPMI media. After 120 hours of incubation at 37 C and 5% CO2, cells were lysed by addition of 25 μL of Cell-Titer-Glo Reagent (Promega Corporation, Madison, WI), as per manufacturer's instructions, protected from light, shaken for 45 minutes, and total luminescence read by a Perkin Elmer Envision plate reader. Total luminescence signal is linearly correlated with cell number remaining in the well.
Luminescence data was processed per plate by subtracting reagent-only “blank” well luminescence from all measured values and calculating a percent of DMSO control value for each treatment well. Then, to determine the half-maximal effective concentration (EC50) values for cell growth inhibition, a four parameter logistic model was fit to the data for each DMSO-normalized compound: Sigmoidal Dose-Response Model: (FIT=(A+((B−A)/1+((C/x)^D)))) where C is the inflection point (EC50), D is the Hill slope, and A and B are the low and high limits of the fit respectively. The lower limit of the fit (value A) is referred to as Ymin-calculated. The minimal percent of DMSO control that is observed in the concentrations tested for each compound is labeled as “Ymin-obs”, and was recorded and reported in the tables. Sigmoidal fit curves were processed and evaluated using Activity Base (IDBS, Alameda, CA).

[2] = molecular target: T1, WEE1 (Homo sapiens, UniProt P30291+Q96SW2); experiment: WEE1-ePL degradation assay (LentiX-WEE1-ePL-GSPT1-ND cells, InCELL Hunter luminescence, 4 h); type: cell-based; settings: 293T-LentiX WEE1-ePL cells; for DC50: read-out: 293T-LentiX WEE1-ePL Degradation 4 hr (EC50)
T1 construct: C-terminal ePL-tagged (DiscoverX, Fremont, CA) full-length WEE1 expression construct; expressed in transfected cells; host or cells: LentiX-HEK293T (Invitrogen), lentiviral transduction; co-expressing GSPT1-GN (G576N, lacking the first 158 amino acids)
Experimental: To generate LentiX-WEE1-ePL-GSPT1-ND cells for the WEE1 degradation assay, LentiX-HEK293T (Invitrogen) were transduced by lentivirus with a C-terminal ePL-tagged (DiscoverX, Fremont, CA) full-length WEE1 expression construct. […] Cells were selected and maintained in complete DMEM media (DMEM, 10% Heat Inactivated FBS, 400 μg/mL Geneticin, and 1 μg/mL puromycin at 37 C and 5% CO2). Cells were passaged every 3-4 days by reseeding 1×10^6 cells in a T150 flask.
Cells were dispensed into 384-well white plates (Corning #3570, NY) that were pre-spotted with compounds using an acoustic dispenser (Echo acoustic transfer system, Beckman Coulter Life Sciences, Carlsbad, CA) as a 10-point dose-response curve with a 3-fold dilution starting at either 1 uM or 10 uM and including a DMSO control. Twenty-five microliters of media containing 2500 cells for LentiX-oeWEE1-ePL was dispensed per well. Assay plates were incubated at 37° C. with 5% CO2 for four hours (WEE1) After incubation, 25 μL of the InCELL Hunter™ Detection Reagent Working Solution (DiscoverX, Fremont, CA) was added to each well and incubated at room temperature for 30 minutes protected from light. After 30 minutes, luminescence was read on a PHERAstar luminometer (Cary, NC).
To determine the half-maximal effective concentration (EC50) values for WEE1-ePL degradation, a four parameter logistic model was used: (Sigmoidal Dose-Response Model) (FIT=(A+((B−A)/1+((C/x)^D)))) where C is the inflection point (EC50), D is the Hill slope, and A and B are the low and high limits of the fit respectively). The lower limit of the fit (value A) is referred to as Ymin. […] The maximum limit constraint, Ymax, is similarly derived using DMSO control. The curves were processed and evaluated using Activity Base (IDBS, Alameda, CA).

[3] = lower limit of the fit (0 = luciferase inhibitor, Ymax = DMSO control)

pEC50 [1]	293T-LentiX WEE1-ePL Degradation 4 hr (Ymin) [2, 3]	SMILES	MKN45 Cell Prolif. 120 hr (Ymin-Obs) [1]	also measured
7.77		O=C1CC[C@H](N2Cc3cc(O[C@H]4CCN(Cc5ccc6nc(C7CCOCC7)ncc6c5F)C4)ccc3C2=O)C(=O)N1 [(3S)-3-(5-{[(3S)-1-{[5-fluoro-2-(oxan-4-yl)quinazolin-6-yl]methyl}pyrrolidin-3-yl]oxy}-1-oxo-2,3-dihydro-1H-isoindol-2-yl)piperidine-2,6-dione]	9.88	
7.91		COC[C@H]1CCC[C@H]1c1ccc2cc(CN3CC[C@H](Oc4ccc5c(c4)CN(C4CCC(=O)NC4=O)C5=O)C3)ccc2n1 (stereo partly drawn) [3-(5-{[(3S)-1-({2-[(1R,2S)-2-(methoxymethyl)cyclopentyl]quinolin-6-yl}methyl)pyrrolidin-3-yl]oxy}-1-oxo-2,3-dihydro-1H-isoindol-2-yl)piperidine-2,6-dione]	15.33	
8.14		O=C1CC[C@H](N2Cc3cc(O[C@H]4CCN(Cc5cc(F)c6nc(N7CCOCC7)ccc6c5)C4)ccc3C2=O)C(=O)N1 [(3S)-3-(5-{[(3S)-1-{[8-fluoro-2-(morpholin-4-yl)quinolin-6-yl]methyl}pyrrolidin-3-yl]oxy}-1-oxo-2,3-dihydro-1H-isoindol-2-yl)piperidine-2,6-dione]	12.7	
7.75		O=C1CC[C@H](N2Cc3cc(O[C@@H]4CN(Cc5ccc6nc(N7CCOCC7)ncc6c5)CC4(F)F)ccc3C2=O)C(=O)N1 [(3S)-3-(5-{[(3R)-4,4-difluoro-1-{[2-(morpholin-4-yl)quinazolin-6-yl]methyl}pyrrolidin-3-yl]oxy}-1-oxo-2,3-dihydro-1H-isoindol-2-yl)piperidine-2,6-dione]	10.03	
	57.26	O=C1CCC(N2Cc3cc(O[C@H]4CCN(Cc5cccc6nccn56)C4)ccc3C2=O)C(=O)N1 (stereo partly drawn) [3-(5-{[(3S)-1-({imidazo[1,2-a]pyridin-5-yl}methyl)pyrrolidin-3-yl]oxy}-1-oxo-2,3-dihydro-1H-isoindol-2-yl)piperidine-2,6-dione]		DC50 [2]: 183 nM
	45.09	COc1nc2ccccc2cc1CN1CC[C@H](Oc2ccc3c(c2)CN(C2CCC(=O)NC2=O)C3=O)C1 (stereo partly drawn) [3-(5-{[(3S)-1-[(2-methoxyquinolin-3-yl)methyl]pyrrolidin-3-yl]oxy}-1-oxo-2,3-dihydro-1H-isoindol-2-yl)piperidine-2,6-dione]		DC50 [2]: 18.3 nM
	78.15	Nc1cccc(COc2cccc(CN3CC[C@H](Oc4ccc5c(c4)CN(C4CCC(=O)NC4=O)C5=O)C3)c2)c1 (stereo partly drawn) [3-(5-{[(3S)-1-({3-[(3-aminophenyl)methoxy]phenyl}methyl)pyrrolidin-3-yl]oxy}-1-oxo-2,3-dihydro-1H-isoindol-2-yl)piperidine-2,6-dione]		DC50 [2]: 818 nM
	92.17	Nc1cccc(COc2ccccc2CN2CC[C@H](Oc3ccc4c(c3)CN(C3CCC(=O)NC3=O)C4=O)C2)c1 (stereo partly drawn) [3-(5-{[(3S)-1-({2-[(3-aminophenyl)methoxy]phenyl}methyl)pyrrolidin-3-yl]oxy}-1-oxo-2,3-dihydro-1H-isoindol-2-yl)piperidine-2,6-dione]		
	89.42	O=C1CCC(N2Cc3ccc(O[C@@H]4CCN(Cc5cnc6ccccc6c5)C4)cc3C2=O)C(=O)N1 (stereo partly drawn) [3-(1-oxo-6-{[(3R)-1-[(quinolin-3-yl)methyl]pyrrolidin-3-yl]oxy}-2,3-dihydro-1H-isoindol-2-yl)piperidine-2,6-dione]		
7.78		COC[C@@H]1CCC[C@H]1c1ccc2cc(CN3CC[C@H](Oc4ccc5c(c4)CN(C4CCC(=O)NC4=O)C5=O)C3)ccc2n1 (stereo partly drawn) [3-(5-{[(3S)-1-({2-[(1R,2R)-2-(methoxymethyl)cyclopentyl]quinolin-6-yl}methyl)pyrrolidin-3-yl]oxy}-1-oxo-2,3-dihydro-1H-isoindol-2-yl)piperidine-2,6-dione]	12.33	
		O=C1CCC(N2Cc3cc(O[C@@H]4CCN(Cc5ccc6ncccc6c5)C4)ccc3C2=O)C(=O)N1 (stereo partly drawn) [3-(1-oxo-5-{[(3R)-1-[(quinolin-6-yl)methyl]pyrrolidin-3-yl]oxy}-2,3-dihydro-1H-isoindol-2-yl)piperidine-2,6-dione]		293T-LentiX WEE1-ePL Degradation 4 hr (Ymin) ([2]; lower limit of the fit (Ymin=0 luciferase inhibitor, Ymax DMSO control)): 90.24
	89.91	NCc1ccccc1COc1ccccc1CN1CC[C@H](Oc2ccc3c(c2)CN(C2CCC(=O)NC2=O)C3=O)C1 (stereo partly drawn) [3-(5-{[(3S)-1-[(2-{[2-(aminomethyl)phenyl]methoxy}phenyl)methyl]pyrrolidin-3-yl]oxy}-1-oxo-2,3-dihydro-1H-isoindol-2-yl)piperidine-2,6-dione]		
	43.42	Cc1nccc(CN2CC[C@H](Oc3ccc4c(c3)CN(C3CCC(=O)NC3=O)C4=O)C2)c1C (stereo partly drawn) [3-(5-{[(3S)-1-[(2,3-dimethylpyridin-4-yl)methyl]pyrrolidin-3-yl]oxy}-1-oxo-2,3-dihydro-1H-isoindol-2-yl)piperidine-2,6-dione]		DC50 [2]: 54.5 nM
	75.96	O=C1CCC(N2Cc3cc(O[C@H]4CCN(Cc5cccc(OC(F)F)c5)C4)ccc3C2=O)C(=O)N1 (stereo partly drawn) [3-(5-{[(3S)-1-{[3-(difluoromethoxy)phenyl]methyl}pyrrolidin-3-yl]oxy}-1-oxo-2,3-dihydro-1H-isoindol-2-yl)piperidine-2,6-dione]		DC50 [2]: 196 nM
	90.1	O=C1CCC(N2C(=O)c3ccc(O[C@@H]4CCN(Cc5ccnc6ccccc56)C4)cc3C2=O)C(=O)N1 (stereo partly drawn) [2-(2,6-dioxopiperidin-3-yl)-5-{[(3R)-1-[(quinolin-4-yl)methyl]pyrrolidin-3-yl]oxy}-2,3-dihydro-1H-isoindole-1,3-dione]		
9.14		COC[C@@H]1CN(Cc2ccc3nc(C4CCOCC4)ccc3c2)C[C@H]1Oc1ccc2c(c1)CN([C@H]1CCC(=O)NC1=O)C2=O [(3S)-3-(5-{[(3S,4S)-4-(methoxymethyl)-1-{[2-(oxan-4-yl)quinolin-6-yl]methyl}pyrrolidin-3-yl]oxy}-1-oxo-2,3-dihydro-1H-isoindol-2-yl)piperidine-2,6-dione]	9.194	
	88.71	NCc1ccc(COc2ccccc2CN2CC[C@H](Oc3ccc4c(c3)CN(C3CCC(=O)NC3=O)C4=O)C2)cc1 (stereo partly drawn) [3-(5-{[(3S)-1-[(2-{[4-(aminomethyl)phenyl]methoxy}phenyl)methyl]pyrrolidin-3-yl]oxy}-1-oxo-2,3-dihydro-1H-isoindol-2-yl)piperidine-2,6-dione]		
	96.5	O=C1CCC(N2Cc3cc(O[C@H]4CCN(Cc5ccnc6ncccc56)C4)ccc3C2=O)C(=O)N1 (stereo partly drawn) [3-(5-{[(3S)-1-[(1,8-naphthyridin-4-yl)methyl]pyrrolidin-3-yl]oxy}-1-oxo-2,3-dihydro-1H-isoindol-2-yl)piperidine-2,6-dione]		
	89.045	O=C1CCC(N2C(=O)c3ccc(O[C@@H]4CCN(Cc5cccc6ncccc56)C4)cc3C2=O)C(=O)N1 (stereo partly drawn) [2-(2,6-dioxopiperidin-3-yl)-5-{[(3R)-1-[(quinolin-5-yl)methyl]pyrrolidin-3-yl]oxy}-2,3-dihydro-1H-isoindole-1,3-dione]		
